The values that follow come from patent US4946855A, “Carboxamide derivatives having tetrazole and thiazole rings and their use” (Sawai Pharmaceutical Co., Ltd., priority 1987, dated 1990).

A word on the inhibition in vivo: it is the change of the read-out against control, counted positive when it falls. A higher inhibition in vivo goes with strong suppression.

Molecules are shown by their SMILES.

The first assay has as its system 48-Hours PCA (passive cutaneous anaphylaxis). Description: Test Example 3: Anti-passive cutaneous anaphylaxis (PCA) activity in rats, 48-Hours PCA (Ic compounds). It counts as in vivo, rat (Wistar strain male). Conditions: 30 mg/kg, P.O., 1 hour before the elicitation. Here is the method: (§1) Anti-passive cutaneous anaphylaxis (PCA) activity in rats (Materials and Method)
(§2) Wistar strain male rats (6 weeks old) were purchased from Shizuoka Experimental Animal Agricultural Cooperative (Japan), habituated to a breeding environment for 1 week before using for the experiment.
(§3) (2) Preparation of antiserum
(§4) Preparation of antiserum was carried out according to the method described in J. Immunol. 106, 1002-1011 (1971).
(§5) Thus, Ascaris suum extract was dinitrophenylated (DNP-As) and infused subcutaneously together with dead Bordetella pertussis at four sites on the foot-pad of the Wistar strain male rats. After 5 days, the rats were boostered with DNP-As (1 mg) at the dorsal muscle for additional sensitization. After 3 days, blood samples were collected and serum was separated which was used as anti DNP-As antiserum. The titer of the antiserum was measured by rats 48-hours PCA and found to be 1:200.
Rats were sensitized with 35 times dilution of anti DNA-As antiserum administered at two sites in the pre-clipped right dorsal skin. After 48 hours, DNP-As (500 μg in 0.5% Evans blue-physiological saline (1 ml) was administered into caudal vein to elicit the reaction. Then, 30 minutes later, the animals were decapitated, the dorsal skin was peeled, two sensitized areas as well as one control area were cut off and analyzed for Evans blue exudation which was used as an indivative of the reaction according to the method disclosed in Microbiol. Immunol. 22, 89-101 (1978). Thus, cut skins were treated with […] incubated at 37° C. for 16 hours to dissolve the skin tissue. A mixed solution (9 ml) of 0.6 N-phosphoric acid-acetone (5: 13) was added and the mixture was centrifuged (300 r.p.m.) for 15 minutes. The supernatant was assayed for absorption at 620 nm and the exudation of Evans blue was determined. Test compounds (I) of the present invention were administered perorally as a suspension in 0.5% tragacanth 1 hour before the elicitation.
`Cc1ccc(-c2nc(C)c(C(=O)Nc3nnn[nH]3)s2)cc1` [Ic-5, 4-methyl-2-(4-methylphenyl)-N-(1H-tetrazole-5-yl)-5-thiazolecarboxamide]: the “Inhibition (%)” value is given as 49%.
In the case of `COc1ccc(-c2nc(C)c(C(=O)Nc3nnn[nH]3)s2)cc1` [Ic-6, 2-(4-Methoxyphenyl)-4-methyl-N-(1H-tetrazole-5-yl)-5-thiazolecarboxamide], the “Inhibition (%)” value is listed as 56%.
As for `Cc1ccc(-c2nc(C)c(NC(=O)c3nnn[nH]3)s2)cc1` [Ic-13, N-(4-methyl-2-(4-methylphenyl)-5-thiazolyl)-1H-tetrazole-5-carboxamide], the “Inhibition (%)” value is 52%.
In the case of `COc1ccc(-c2nc(C)c(NC(=O)c3nnn[nH]3)s2)cc1` [Ic-14, N-(2-(4-Methoxyphenyl)-4-methyl-5-thiazolyl)-1H-tetrazole-5-carboxamide], the “Inhibition (%)” value is on record as 50%.

Staying with this assay, now noted: 50 mg/kg, P.O., 1 hour before the elicitation.
Regarding `COc1ccc(/C=C/C(=O)Nc2ccccc2C(=O)O)cc1OC` [Tranilast, reference compound], the “Inhibition (%)” value is 0%.

The test system is the same in the next assay. Description: Test Example 2: Anti-passive cutaneous anaphylaxis (PCA) activity in rats, 48-Hours PCA (Ib compounds). It counts as in vivo, rat (Wistar strain male). The following applies: Rattus norvegicus, po, 20 mg/kg, P.O., 1 hour before the elicitation. As to the method:
as §1, §2, §3, §4, §5
(§6) Rats were sensitized with 35 times dilution of anti DNA-As antiserum administered at two sites in the pre-clipped right dorsal skin. After 48 hours, DNP-As (500 μg in 0.5% Evans blue-physiological saline (1 ml) was administered into caudal vein to elicit the reaction. Then, 30 minutes later, the animals were decapitated, the dorsal skin was peeled, two sensitized areas as well as one control area were cut off and analyzed for Evans blue exudation which was used as an indivative of the reaction according to the method disclosed in Microbiol. Immunol. 22, 89-101 (1978). Thus, cut skins were treated with 1N-KOH (1 ml) and incubated at 37° C. for 16 hours to dissolve the skin tissue. A mixed solution (9 ml) of 0.6N-phosphoric acid-acetone (5: 13) was added and the mixture was centrifuged (300 r.p.m.) for 15 minutes. The supernatant was assayed for absorption at 620 nm and the exudation of Evans blue was determined. Test compounds (I) of the present invention were administered perorally as a suspension in 0.5% tragacanth 1 hour before the elicitation.
In turn, `O=C(Nc1nc(-c2ccccc2)cs1)c1nnn[nH]1` [Ib-1, N-(4-phenyl-2-thiazolyl)-1H-tetrazole-5-carboxamide] returned an inhibition in vivo at 20 mg/kg of 66%.
On the same count and under the same terms, then `COc1ccc(-c2csc(NC(=O)c3nnn[nH]3)n2)cc1` [Ib-4], with 92%; and `Cc1ccc(-c2csc(NC(=O)c3nnn[nH]3)n2)cc1` [Ib-5, N-(4-(4-Methylphenyl)-2-thiazolyl)-1H-tetrazole-5-carboxamide], with 89%.
Still for that read-out and setting: then `O=C(Nc1nc(-c2ccc(Cl)cc2)cs1)c1nnn[nH]1` [Ib-7, N-(4-(4-chlorophenyl)-2-thiazolyl)-1H-tetrazole-5-carboxamide], with 70%; and `Cc1sc(NC(=O)c2nnn[nH]2)nc1-c1ccccc1` [Ib-12, N-(5-methyl-4-phenyl-2-thiazolyl)-1H-tetrazole-5-carboxamide], with 51%.

The assay is the same for the next values; noted with them: Rattus norvegicus, po, 30 mg/kg, P.O., 1 hour before the elicitation.
Regarding `Cc1ccc(-c2csc(C(=O)Nc3nnn[nH]3)n2)cc1` [Ib-13, 4-(4-Methylphenyl)-N-(1H-tetrazole-5-yl)-2-thiazolecarboxamide], at 30 mg/kg the inhibition in vivo was 60%.
The same measure, in the same setting: then `COc1ccc(-c2csc(C(=O)Nc3nnn[nH]3)n2)cc1` [Ib-14, 4-(4-methoxyphenyl)-N (1H-tetrazole-5-yl)-2-thiazolecarboxamide], with 50%.

Still in this assay, the particulars now being: Rattus norvegicus, po, 50 mg/kg, P.O., 1 hour before the elicitation.
In the case of `COc1ccc(/C=C/C(=O)Nc2ccccc2C(=O)O)cc1OC` [Tranilast, reference compound], the inhibition in vivo at 50 mg/kg was 0%.

Another assay has the same test system. The experiment in a line: Test Example 1: Anti-passive cutaneous anaphylaxis (PCA) activity in rats, 48-Hours PCA (Ia compounds). It counts as in vivo, rat (Wistar strain male). The following applies: Rattus norvegicus, po, 15 mg/kg, perorally, 1 hour before the elicitation. As to the method:
as §1, §2, §3, §4, §5
as §6, with “μg in 0.5 % Evans blue-physiological” for “μg in 0.5% Evans blue-physiological”
In the case of `Cc1nc(NC(=O)c2nnn[nH]2)cs1` [Ia-1, N-(2-Methyl-4-thiazolyl)-1H-tetrazole-5-carboxamide], the inhibition in vivo at 15 mg/kg is 60%.
The same measure, in the same setting: in the case of `Cc1ccccc1-c1nc(NC(=O)c2nnn[nH]2)cs1` [Ia-3, N-(2-(2-methylphenyl)-4-thiazolyl)-1H-tetrazole-5-carboxamide] it was 78%; in that of `Cc1cccc(-c2nc(NC(=O)c3nnn[nH]3)cs2)c1` [Ia-4, N-(2-(3-methylphenyl)-4-thiazolyl)-1H-tetrazole-5-carboxamide], 39%.
On the same count and under the same terms, then `COc1ccc(-c2nc(NC(=O)c3nnn[nH]3)cs2)cc1` [Ia-8], with 80%; and `O=C(Nc1csc(-c2ccc(Cl)cc2)n1)c1nnn[nH]1` [Ia-15, N-(2-(4-chlorophenyl)-4-thiazolyl)-1H-tetrazole-5-carboxamide], with 50%; and `CC(C)c1ccc(-c2nc(NC(=O)c3nnn[nH]3)cs2)cc1` [Ia-16, N-(2-(4-(1-methylethyl)phenyl)-4-thiazolyl) 1H-tetrazole-5-carboxamide], with 46%.
On the same count and under the same terms, in the case of `CC(C)(C)c1ccc(-c2nc(NC(=O)c3nnn[nH]3)cs2)cc1` [Ia-17, N-(2-(4-(1,1-dimethylethyl)phenyl)-4-thiazolyl)-1H-tetrazole-5-carboxamide] it was 47%.
Compound `O=C(Nc1csc(-c2cccnc2)n1)c1nnn[nH]1` [Ia-23, N-(2-(3-Pyridyl)-4-thiazolyl)-1H-tetrazole-5-carboxamide] showed an inhibition in vivo at 15 mg/kg of 40%.
The same measure, in the same setting: then `O=C(Nc1csc(-c2cccs2)n1)c1nnn[nH]1` [Ia-25, N-(2-(2-thienyl)-4-thiazolyl)-1H-tetrazole-5-carboxamide], with 43%; and `O=C(Nc1csc(-c2ccc3ccccc3n2)n1)c1nnn[nH]1` [Ia-26, N-(2-(2-quinolyl)-4-thiazolyl)-1H-tetrazole-5-carboxamide], with 42%.

The assay is the same for the next values; noted with them: Rattus norvegicus, po, 25 mg/kg, perorally, 1 hour before the elicitation.
Regarding `Cc1ccc(-c2nc(NC(=O)c3nnn[nH]3)cs2)cc1` [Ia-5], the inhibition in vivo at 25 mg/kg came out at 90%.
Same read-out and setting: in the case of `Cc1ccc(-c2nc(NC(=O)c3nnn[nH]3)c(C)s2)cc1` [Ia-19, N-(2-(4-methylphenyl)-5-methyl-4-thiazolyl)-1H-tetrazole-5-carboxamide] it was 61%.

The assay is the same for the next values; noted with them: Rattus norvegicus, po, 50 mg/kg, 1 hour before the elicitation.
`COc1ccc(/C=C/C(=O)Nc2ccccc2C(=O)O)cc1OC` [Tranilast, reference compound] yielded an inhibition in vivo at 50 mg/kg of 0%.
